Where two headings read alike, the source gives them in different places.

The subject of data set [1] is human ovarian cancer cell line A2780. Put plainly: Growth inhibition assay (CellTiter 96 Non-Rad Cell Proliferation Assay). The conditions noted are these: for IC50 compared with SHetA2 / efficacy compared with SHetA2: comparison in words; for IC50 compared with SHetA2: 'exceeded' = lower IC50 in Table 1. Type of data set: cell-based. The procedure:
To illustrate the general activity of the compounds inhibiting growth of human […] ovarian cancer cells, selected compounds were synthesized and evaluated. The compounds were dissolved in DMSO at a concentration of 0.01 M. The human ovarian cancer cell line A2780 was plated in 96-well tissue culture dishes at a concentration of 3000 cells per well in RPMI medium supplemented with 10% fetal bovine serum and a mixture of antibiotics and antimycotics. The next day, the cultures were treated in triplicate with compound concentrations ranging from 2 μM to 8 μM increments. For compound 12, additional experiments were performed with concentrations of 10 μM and a series of two-fold dilutions to 156 nM. Control cultures were treated with DMSO solvent only. After 72 h of incubation, the […] 96® Non-Rad Cell Proliferation Assay (Promega) was used to quantify the remaining metabolically living cells. After subtracting blank values, the optical density (OD) readouts of the assay for the treated cultures were normalized with the average OD of the control cultures. For each compound, the experiment was repeated at least once, resulting in a minimum of 6 dose-response curves. For SHetA2, 24 response curves were available for statistical fitting parameters. A custom program was written in GNU Octave, a free software compatible with Matlab, to fit the dose-response curves with a four-parameter sigmoid function, extracting the IC50 and efficacy (the maximal % growth inhibition) parameters.
To illustrate the useful biological activity of these chroman-substituted and tetrahydroquinoline-substituted heteroarotinoids, the compounds were screened against human […] ovarian cancer cells.

The mark [2] stands for this setting: Homo sapiens, A2780, 72 h, Table 2, tetrahydroquinoline-containing members.
Where [3] appears, read: Homo sapiens, A2780, 72 h, Table 2, maximal % growth inhibition, A2780, 72 h, read-out: Efficacy.
[4] abbreviates: Homo sapiens, A2780, 72 h, Table 1, chroman-containing series.
The mark [5] stands for this setting: Homo sapiens, A2780, 72 h, Table 1, maximal % growth inhibition, A2780, 72 h, read-out: Efficacy.
Setting [6] is: Homo sapiens, A2780, Table 3, 14 series (thiochroman), A2780.
The mark [7] stands for this setting: Homo sapiens, A2780, Table 3, 14 series, A2780, read-out: % Efficacy.

`CN1c2ccc(NC(=S)Nc3ccc([N+](=O)[O-])cc3)cc2C(C)(C)CC1(C)C` [Compound 12, 3-(1,2,2,4,4-Pentamethyl-1,2,3,4-tetrahydroquinolin-6-yl)-1-(4-nitrophenyl)thiourea] returned a melting point of 151 to 153 °C. The same molecule displayed a half-inhibitory concentration (IC50) in data set [1] (setting [2]) of 4.49 µM. The Emax in data set [1] (setting [3]) was determined as 91.7%.
`CC1(C)CCNc2ccc(NC(=S)Nc3ccc(C(F)(F)F)cc3)cc21` [Compound 9c, 1-(4,4-Dimethyl-1,2,3,4-tetrahydroquinolin-6-yl)-3-(4-(trifluoromethyl)phenyl)thiourea] returned a melting point of 104 to 105 °C. This molecule also registered an IC50 in data set [1] (setting [2]) of 6 µM. For the same molecule, in data set [1] (setting [3]), the Emax is 42%.
The molecule `CCC1(CC)CC(CC)(CC)c2cc(NC(=O)Nc3ccc(OC(F)(F)F)cc3)ccc2O1` [Compound 8d, 1-(2,2,4,4-Tetraethylchroman-6-yl)-3-(4-(trifluoromethoxy)phenyl)urea] yielded a melting point of 180 to 181 °C. Further, the IC50 in data set [1] (setting [4]) was 3 µM. Further, in data set [1] (setting [5]), the Emax came to 67%. For the same molecule, the “IC50 compared with SHetA2” value in data set [1] (A2780) is listed as “exceeded”.
As to `CN1c2ccc(NC(=S)Nc3ccc(C(F)(F)F)cc3)cc2C(C)(C)C(O)C1(C)C` (centres unmarked) [Compound 13d, 1-(3-Hydroxy-1,2,2,4,4-pentamethyl-1,2,3,4-tetrahydroquinolin-6-yl)-3-(4-(trifluoromethyl)phenyl)thiourea], the melting point was 105 to 107 °C. Moreover, in data set [1] (setting [2]), it took 7.6 µM to reach half-maximal inhibition (IC50). Further, in data set [1] (setting [3]), the Emax was found to be 56.1%.
As to `CCC1(CC)CC(C)(C)c2cc(NC(=O)Nc3ccc(C(F)(F)F)cc3)ccc2O1` [Compound 6c, 1-(2,2-Diethyl-4,4-dimethylchroman-6-yl)-3-(4-(trifluoromethyl)phenyl)urea], the melting point lay in the range of 208 to 210 °C. The same molecule came in with an IC50 in data set [1] (setting [4]) of 2.45 µM. In addition, in data set [1] (setting [5]), the Emax worked out at 92.4%. In addition, in data set [1] (A2780), the “efficacy compared with SHetA2” value is reported as “exceeded the efficacy of SHetA2” and the “IC50 compared with SHetA2” value is reported as “exceeded”.
`CN1c2ccc(NC(=S)Nc3ccc(OC(F)(F)F)cc3)cc2C(C)(C)C(O)C1(C)C` (centres unmarked) [Compound 13f, 1-(3-Hydroxy-1,2,2,4,4-pentamethyl-1,2,3,4-tetrahydroquinolin-6-yl)-3-(4-(trifluoromethoxy)phenyl)thiourea] came in with a melting point of 97 to 99 °C. Also, in data set [1] (setting [2]), half-maximal inhibition (IC50) was put at 13.1 µM. The Emax in data set [1] (setting [3]) is 15.3%.
Take `CN1c2ccc(NC(=O)Nc3ccc([N+](=O)[O-])cc3)cc2C(C)(C)C(=O)C1(C)C` [Compound 11a, 1-(4-Nitrophenyl)-3-(1,2,2,4,4-pentamethyl-3-oxo-1,2,3,4-tetrahydroquinolin-6-yl)urea]: the melting point lay in the range of 200 to 201 °C. Besides, half-maximal inhibition in data set [1] (setting [2]) (IC50) was put at 3.8 µM. In data set [1] (setting [3]), the Emax worked out at 94.8%.
In turn, `CC1(C)CC(C)(C)c2cc(NC(=O)Nc3ccc(C#N)cc3)ccc2O1` [Compound 3b, 1-(4-Cyanophenyl)-3-(2,2,4,4-tetramethylchroman-6-yl)urea] displayed a melting point of 225 to 226 °C. For the same molecule, the “efficacy compared with SHetA2” value in data set [1] (A2780) was “exceeded the efficacy of SHetA2”.
`CC1(C)CC(C)(C)c2cc(NC(=O)Nc3ccc(C(F)(F)F)cc3)ccc2O1` [Compound 3a, 1-(2,2,4,4-Tetramethylchroman-6-yl)-3-(4-(trifluoromethyl)phenyl)urea] yielded a melting point of 245 to 246 °C. The IC50 in data set [1] (setting [4]) turned out to be 4.1 µM. Further, the Emax in data set [1] (setting [5]) came to 79%.
In turn, `CC1(C)CCNc2ccc(NC(=S)Nc3ccc([N+](=O)[O-])cc3)cc21` [Compound 9b, 1-(4,4-Dimethyl-1,2,3,4-tetrahydroquinolin-6-yl)-3-(4-nitrophenyl)thiourea] yielded a melting point of 150 to 152 °C. Further, the 50% inhibitory concentration (IC50) in data set [1] (setting [2]) amounted to 7.1 µM. For the same molecule, in data set [1] (setting [3]), the Emax came to 17.8%.
The molecule `CN1c2ccc(NC(=O)Nc3ccc(OC(F)(F)F)cc3)cc2C(C)(C)C(=O)C1(C)C` [Compound 11e, 1-(1,2,2,4,4-Pentamethyl-3-oxo-1,2,3,4-tetrahydroquinolin-6-yl)-3-(4-(trifluoromethoxy)phenyl)urea] came in with a melting point of 191 to 192 °C. This molecule returned an IC50 in data set [1] (setting [2]) of 2.4 µM. For the same molecule, the Emax in data set [1] (setting [3]) stood at 91.3%.
With `CC1(C)CCOc2ccc(NC(=S)Nc3ccc(OC(F)(F)F)cc3)cc21` [Compound 4c, 1-(4,4-Dimethylchroman-6-yl)-3-(4-(trifluoromethoxy)phenyl)thiourea], the melting point lay in the range of 153 to 154 °C. In data set [1] (setting [4]), this molecule had an IC50 of 4.3 µM. Besides, in data set [1] (setting [5]), the Emax is 16%.
`CN1c2ccc(NC(=S)Nc3ccc(OC(F)(F)F)cc3)cc2C(C)(C)C(=O)C1(C)C` [Compound 11f, 1-(1,2,2,4,4-Pentamethyl-3-oxo-1,2,3,4-tetrahydroquinolin-6-yl)-3-(4-(trifluoromethoxy)phenyl)thiourea] registered a melting point of 83 to 85 °C. The molecule further registered an IC50 in data set [1] (setting [2]) of 5.4 µM. In data set [1] (setting [3]), the Emax is 76%.
For `CN1c2ccc(NC(=O)Nc3ccc(C(F)(F)F)cc3)cc2C(C)(C)C(O)C1(C)C` (centres unmarked) [Compound 13c, 1-(3-Hydroxy-1,2,2,4,4-pentamethyl-1,2,3,4-tetrahydroquinolin-6-yl)-3-(4-(trifluoromethyl)phenyl)urea] the same measures were 213 to 215 °C, 6.7 µM and 25%.
In the case of `COc1ccc(NC(=S)Nc2ccc3c(c2)C(C)(C)CC(C)(C)S3)cc1` [Compound 14h, 1-(4-Methoxyphenyl)-3-(2,2,4,4-tetramethylthiochroman-6-yl)thiourea], the IC50 in data set [1] (setting [6]) stood at 2.78 ± 0.47 µM. For the same molecule, the Emax in data set [1] (setting [7]) was 59.8 ± 1.2%.
`CC1(C)CC(C)(C)c2cc(NC(=S)Nc3ccc(C(F)(F)F)cc3)ccc2S1` [Compound 14e, 1-(2,2,4,4-Tetramethylthiochroman-6-yl)-3-(4-(trifluoromethyl)phenyl)thiourea] returned an IC50 in data set [1] (setting [6]) of 2.86 ± 0.29 µM. Moreover, in data set [1] (setting [7]), the Emax was 95.9 ± 0.6%. The “efficacy compared with SHetA2” value in data set [1] (A2780) was “exceeded that of SHetA2 in efficacy”.
For the molecule `CCC1(CC)CC(C)(C)c2cc(NC(=S)Nc3ccc([N+](=O)[O-])cc3)ccc2O1` [Compound 6a, 1-(2,2-Diethyl-4,4-dimethylchroman-6-yl)-3-(4-nitrophenyl)thiourea], in data set [1] (setting [4]), the IC50 was 2.9 µM. Moreover, in data set [1] (setting [5]), the Emax stood at 93.9%. Moreover, in data set [1] (A2780), the “efficacy compared with SHetA2” value is “exceeded the efficacy of SHetA2” and the “IC50 compared with SHetA2” value was “exceeded”.
As to `CN1c2ccc(NC(=S)Nc3ccc([N+](=O)[O-])cc3)cc2C(C)(C)C(O)C1(C)C` (centres unmarked) [Compound 13b], half-maximal inhibition in data set [1] (Table 2, tetrahydroquinoline-containing members, A2780, 72 h) (IC50) required 10 µM. Besides, the Efficacy in data set [1] (Table 2, maximal % growth inhibition, A2780, 72 h) is 25 (±4) %.
In turn, `CC1(C)CCOc2ccc(NC(=O)Nc3ccc(C(F)(F)F)cc3)cc21` [Compound 5b] registered an IC50 in data set [1] (Table 1, chroman-containing series, A2780, 72 h) of 5 µM. In data set [1] (Table 1, maximal % growth inhibition, A2780, 72 h), this molecule returned an Efficacy of 47%.
`CC1(C)CC(C)(C)c2cc(NC(=S)NNc3ccccc3)ccc2S1` [Compound 14q, 2-Phenyl-N-(2,2,4,4-tetramethylthiochroman-6-yl)hydrazine-1-carbothioamide] gave an IC50 in data set [1] (setting [6]) of 7.03 ± 0.31 µM. In data set [1] (setting [7]), the Emax came out at 63.6 ± 3.7%.
As for `CC1(C)CC(C)(C)c2cc(NC(=S)Nc3ccc(S(N)(=O)=O)cc3)ccc2O1` [Compound 2d, 4-(3-(2,2,4,4-Tetramethylchroman-6-yl)thioureido)benzenesulfonamide], the melting point lay in the range of 186 to 187 °C.
`CC1(C)CC[N+](C)(C)c2ccc(NC(=O)Nc3ccc([N+](=O)[O-])cc3)cc21` [Compound 10, 1,1,4,4-Tetramethyl-6-(3-(4-nitrophenyl)ureido)-1,2,3,4-tetrahydroquinolin-1-ium Iodide]: inhibition in data set [1] (setting [2]) was half-maximal at 6.6 µM (IC50). Besides, in data set [1] (setting [3]), the Emax worked out at 22%.
In data set [1] (setting [4]), `CCC1(CC)CC(C)(C)c2cc(NC(=O)Nc3ccc([N+](=O)[O-])cc3)ccc2O1` [Compound 6b, 1-(2,2-Diethyl-4,4-dimethylchroman-6-yl)-3-(4-nitrophenyl)urea] yielded an IC50 of 2.17 µM. The Emax in data set [1] (setting [5]) is 93.3%. In data set [1] (A2780), the “efficacy compared with SHetA2” value was “exceeded the efficacy of SHetA2” and the “IC50 compared with SHetA2” value was “exceeded”.
`CC1(C)CC(C)(C)c2cc(NC(=S)NCc3ccc([N+](=O)[O-])cc3)ccc2S1` [Compound 14m, 1-(4-Nitrobenzyl)-3-(2,2,4,4-tetramethylthiochroman-6-yl)thiourea]: the half-inhibitory concentration (IC50) in data set [1] (setting [6]) came to 4.7 ± 0.11 µM. Besides, in data set [1] (setting [7]), the Emax stood at 94.5 ± 0.6%. For the same molecule, the “efficacy compared with SHetA2” value in data set [1] (A2780) is listed as “exceeded that of SHetA2 in efficacy”.
Turning to `CC1(C)CC(C)(C)c2cc(NC(=S)NNC(=O)c3ccc(OC(F)(F)F)cc3)ccc2S1` [Compound 14t, N-(2,2,4,4-Tetramethylthiochroman-6-yl)-2-(4-(trifluoromethoxy)benzoyl)hydrazine-1-carbothioamide], in data set [1] (setting [6]), 3.6 ± 0.18 µM corresponded to half-maximal inhibition (IC50). In data set [1] (setting [7]), the Emax stood at 57.4 ± 0.4%.

Values taken from patent US11993573B2, “Chromane-substituted, tetrahydroquinoline-substituted and thiochromane-substituted heteroarotinoids as anti-cancer agents” (THE BOARD OF REGENTS FOR OKLAHOMA STATE UNIVERSITY, priority 2018, dated 2024).
